{
  "source": "patent US20250383339A1",
  "about": "“DESIGN AND APPLICATION OF NOVEL LIGAND-INDUCED SPLIT-PROTEIN SYSTEMS” (ARIZONA BOARD OF REGENTS ON BEHALF OF THE UNIVERSITY OF …, priority 2022, published 2025)",
  "molecules": {"B1": {"name": "N-Bcl-xL 1-112 split-firefly-luciferase fusion (α3-α4 split site) (other)", "chain": "MEDAKNIKKGPAPFYPLEDGTAGEQLHKAMKRYALVPGTIAFTDAHIEVNITYAEYFEMSVRLAEAMKRYGLNTNHRIVVCSENSLQFFMPVLGALFIGVAVAPANDIYNERELLNSMNISQPTVVFVSKKGLQKILNVQKKLPIIQKIIIMDSKTDYQGFQSMYTFVTSHLPPGFNEYDFVPESFDRDKTIALIMNSSGSTGLPKGVALPHRTACVRFSHARDPIFGNQIIPDTAILSVVPFHHGFGMFTTLGYLICGFRVVLMYRFEEELFLRSLQDYKIQSALLVPTLFSFFAKSTLIDKYDLSNLHEIASGGAPLSKEVGEAVAKRFHLPGIRQGYGLTETTSAILITPEGDDKPGAVGKVVPFFEAKVVDLDTGKTLGVNQRGELCVRGPMIMSGYVNNPEATNALIDKDGCGRGGSGGGGSGGGGSVDGGSGGQLDIMSQSNRELVVDFLSYKLSQKGYSWSQFSDVEENRTEAPEGTESEMETPSAINGNPSWHLADSPAVNGATGHSSSLDAREVIPMAAVKQALREAGDEFELRYRRAFSDLTSQL", "notes": "Expressed by transient transfection in HEK293T cells; also called N-Bcl-xL (aa 1-112)"}},
  "key": {"[1]": {"system": "split-Src controlled by split Bcl-xL", "assay": "anti-phosphotyrosine western blot of split-Src controlled by split Bcl-xL in HEK293T cells", "assay_type": "cell-based, human", "conditions": "for global tyrosine phosphorylation: N-Bcl-xL 1-112 / C-Bcl-XL WT 113-209 split-Src, 10 µM ligand vs DMSO", "description": "The most ligand-responsive fragments, N-Bcl-xL 1-112 and C-Bcl-XL WT 113-209, were cloned into existing full-length split-Src constructs. N-Bcl-xL was attached via a 25-residue linker to the N-terminus of N-Src. C-Bcl-XL WT was attached via a 25-residue linker to C-Src Y530F (FIG. 4A). Each split-kinase system was tested in HEK293T cells via transient transfection and treated with either DMSO or 10 µM of Bcl-xL ligands A-1155463, ABT-263, or ABT-737. […] More importantly, this novel CID system can likely be used in combination with the three existing CID systems to generate additional layers of control in cells for controlling pathways with externally added small molecules. For example, a split kinase and a corresponding split phosphatase may be used in conjunction with a split target protein (e.g., as described herein) to examine any given phosphorylation pathway in a cell. In some embodiments, the split target protein may be either upstream or downstream of a phosphorylation cascade (e.g., the split kinase). The aforementioned system would allow precise signaling studies to be undertaken by titration of two or more ligands (e.g., small molecules; e.g., one ligand for each split protein in the system)."}, "[2]": {"system": "Bcl-xL WT and Bcl-xL R139A", "assay": "split-luciferase assay, Bcl-xL 209 R139A side-by-side with wild-type parent", "assay_type": "cell-based, human", "conditions": "α3-α4 split site, 50 nM ligand, 5 ng of each FLuc construct (FIG. 3)", "description": "Low passage (≤25) cells were seeded onto T-75 (Fisher) flasks at 1E6 cells per mL and grown for 24 hours in complete media. Transient transfections were performed using PolyJet (SignaGen). 96-well culture plates were coated with 50 μL/well of 50 μg/mL solution of poly-D-lysine (MilliPore) and incubated at 4C overnight. Cells were transfected for ˜16 h, then were trypsinized and quantified. Cells were plated onto coated 96-well plates at 1E4 cells/well in DMEM supplemented with 0.5% v/v FBS. Treatment was dissolved in DMSO and added to a final DMSO concentration of 0.05% by volume. Cells were grown in treatment media for 24 h before being lysed with an in-house detergent-based buffer. Cell lysis was clarified via centrifugation, and 50 μL of clarified lysate was plated per well on a white U-bottom luminescence plate. 80 μL of L-GLO was added to each well, and the plate was incubated at room temperature for 25-40 minutes before luminescence was read on a Centro XS3 LB960 (Berthold Technologies) microplate luminometer. Separately, clarified lysate was quantified using a Micro-BCA kit (Pierce), and luminescence was normalized to RLU per microgram of total protein using Microsoft Excel. All data presented were plotted using Kaleidagraph (Synergy) 3.5."}, "Bcl-xL": {"target": "Bcl-xL (Homo sapiens, UniProt Q07817)", "sequence (Q07817 whole entry)": "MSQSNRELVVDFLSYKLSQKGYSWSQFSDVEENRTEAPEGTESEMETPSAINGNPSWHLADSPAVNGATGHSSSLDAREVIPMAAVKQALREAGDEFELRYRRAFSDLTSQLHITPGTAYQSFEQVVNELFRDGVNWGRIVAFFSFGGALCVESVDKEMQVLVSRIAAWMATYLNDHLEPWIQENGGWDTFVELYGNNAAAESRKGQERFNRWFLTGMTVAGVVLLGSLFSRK", "conditions": "in the literature; cited from earlier work"}, "Bcl-xL 209 R139A": {"target": "T1, Bcl-xL 209 R139A (Homo sapiens, UniProt Q07817, R139A)", "T1 construct": "expressed in transfected cells; host or cells: HEK293T", "T1 sequence (Q07817 113-209 R139A, one chain of several)": "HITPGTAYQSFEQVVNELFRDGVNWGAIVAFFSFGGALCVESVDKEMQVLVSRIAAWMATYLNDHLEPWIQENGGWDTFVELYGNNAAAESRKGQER", "assay": "split-luciferase complementation assay of split Bcl-xL 209 R139A in HEK293T cells", "assay_type": "cell-based", "conditions": "split-luciferase signal", "text": "(§1) To design split Bcl-xL, a suitable readout was required to measure successful ligand-dependent reassembly. A split-luciferase complementation assay was used, which was originally identified by rapamycin-induced complementation of FKBP and FRB. The split protein constructs were designed such that split-firefly luciferase-dependent luminescence would only be generated upon dimerization of N-Bcl-xL and C-Bcl-xL fragments […] (FIG. 2A). The split-protein constructs were created for each of the Bcl-xL split sites (FIG. 2B) and tested by transient transfection into HEK293T cells with the addition of either a Bcl-xL ligand or DMSO.\nLow passage (≤25) cells were seeded onto T-75 (Fisher) flasks at 1E6 cells per mL and grown for 24 hours in complete media. […] Cells were transfected for ˜16 h, then were trypsinized and quantified. […] Cell lysis was clarified via centrifugation, and 50 μL of clarified lysate was plated per well on a white U-bottom luminescence plate. 80 μL of L-GLO was added to each well, and the plate was incubated at room temperature for 25-40 minutes before luminescence was read on a Centro XS3 LB960 (Berthold Technologies) microplate luminometer. Separately, clarified lysate was quantified using a Micro-BCA kit (Pierce), and luminescence was normalized to RLU per microgram of total protein using Microsoft Excel. […]"}, "[3]": {"system": "split-Src controlled by the ABI/PYL CID system", "assay": "anti-phosphotyrosine western blot of split-Src controlled by the ABI/PYL CID system", "assay_type": "cell-based", "conditions": "for phosphorylation / kinase activity of ABI/PYL split-Src with CID alone: abscisic acid CID alone", "description": "It was hypothesized that there might be off-target kinase inhibition by ABT-263, which is not present in the other ligands tested. To interrogate this potential off-target kinase inhibition, an orthogonal split-Src construct design was employed with ABI and PYL domains and the CID, abscisic acid. The split-Src was tested as fragments without CID, fragments with CID, and fragments with CID plus ABT-263."}, "[4]": {"target": "T2, C-Bcl-XL WT 113-209 split-firefly-luciferase fusion (human, UniProt Q07817 113-209)", "T2 construct": "not shown: split firefly luciferase half (NFluc or CFluc) with any linker", "T2 sequence (Q07817 113-209)": "as the sequence (Q07817 113-209 R139A, one chain of several) above, with A27R counted along it", "assay": "split-luciferase complementation in HEK293T cells, reassembly induced by ABT-263", "text": "Fold change is indicated as a measure of small-molecule dependence of the luminescence.\nas §1"}},
  "note": "Entries after “also recorded” stand apart in the source; their conditions may differ.",
  "data": [
    {"molecule": "CN(C)CC#Cc1ccc(OCCCc2sc(N3CCc4cccc(C(=O)Nc5nc6ccccc6s5)c4C3)nc2C(=O)O)c(F)c1", "note": "[A-1155463]", "values": [
      {"measurement": "global tyrosine phosphorylation", "setting": "[1]", "result": "significant increases in global tyrosine phosphorylation"},
      {"measurement": "split-luciferase signal, difference between Bcl-xL WT and R139A in ligand-induced reassembly", "setting": "[2]", "result": "preferential binding for wild-type C-Bcl-XL 113-209 over the R139A mutant"},
      {"measurement": "binding affinity to Bcl-xL", "setting": "Bcl-xL", "result": "sub-nanomolar"},
      {"measurement": "ligand-induced reassembly (induced dimerization) of Bcl-xL 209 R139A", "setting": "Bcl-xL 209 R139A", "result": "did not induce significant reassembly"}
    ]},
    {"molecule": "CC1(C)CCC(c2ccc(Cl)cc2)=C(CN2CCN(c3ccc(C(=O)NS(=O)(=O)c4ccc(N[C@H](CCN5CCOCC5)CSc5ccccc5)c(S(=O)(=O)C(F)(F)F)c4)cc3)CC2)C1", "note": "[ABT-263]", "values": [
      {"measurement": "phosphorylation / kinase turn-on of ABI/PYL split-Src on addition of ABT-263 with abscisic acid", "setting": "[3]; fragments with abscisic acid CID plus ABT-263", "result": "lesser amount of kinase turn-on; also recorded: phosphorylation is slightly decreased"},
      {"measurement": "global tyrosine phosphorylation", "setting": "[1]", "result": "significant increases in global tyrosine phosphorylation"},
      {"measurement": "intensity of induced phosphorylation compared to A-1155463 and ABT-737", "setting": "[1]; split-Src controlled by split Bcl-xL", "result": "lower intensity of induced phosphorylation"},
      {"measurement": "split-luciferase signal, difference between Bcl-xL WT and R139A in ligand-induced reassembly", "setting": "[2]", "result": "respond similarly; also recorded: no significant difference"}
    ]},
    {"molecule": "CN(C)CC[C@H](CSc1ccccc1)Nc1ccc(S(=O)(=O)NC(=O)c2ccc(N3CCN(Cc4ccccc4-c4ccc(Cl)cc4)CC3)cc2)cc1[N+](=O)[O-]", "note": "[ABT-737]", "values": [
      {"measurement": "global tyrosine phosphorylation", "setting": "[1]", "result": "significant increases in global tyrosine phosphorylation"}
    ]},
    {"molecule": "CC1=CC(=O)CC(C)(C)[C@@]1(O)/C=C/C(C)=C\\C(=O)O", "note": "[abscisic acid]", "values": [
      {"measurement": "phosphorylation / kinase activity of ABI/PYL split-Src with CID alone", "setting": "[3]", "result": "strong phosphorylation"},
      {"measurement": "phosphorylation / kinase activity of ABI/PYL split-Src with CID alone", "setting": "[3]; listed as ABA", "result": "turns the kinase activity on"}
    ]},
    {"molecule": "B1", "values": [
      {"measurement": "binding result", "setting": "[4]", "result": "binds"}
    ]}
  ]
}
